# Laboratory results taken from patent US20240376048A1 (Celgene Corporation, priority 2021, published 2024).
# Biological target: S1P5 (Homo sapiens, UniProt Q9H228)
# Assay: [35S]-GTPγS binding assay (S1P5 agonism), CHO cell membranes
# Type: biochemical
# Details: membranes of CHO cells expressing recombinant S1P5 receptors, measure of S1P5 agonism
# Description: CHO cells expressing recombinant S1P5 receptors were cultured in 500 cm^2 culture trays and, once confluent, rinsed and detached with cell-lifting buffer (10 mM HEPES, 154 mM NaCl, 6.85 mM EDTA, pH 7.4). Cells were then pelleted by centrifugation, resuspended, and homogenized in membrane preparation buffer (10 mM HEPES and 10 mM EDTA, pH 7.4) using a Polytron PT 1200E homogenizer (Kinematica, Luzern, Switzerland). Cellular proteins were pelleted by centrifugation at 48,000×g at 4° C. for 30 minutes. The resulting supernatant was discarded, and the pellet was re-suspended again in membrane preparation buffer, homogenized for a second time, and then centrifuged again as described above. The final cellular protein pellet was suspended in ice cold resuspension buffer (10 mM HEPES and 0.1 mM EDTA, pH 7.4), divided into aliquots, and stored at −80° C. until use.
# Functional binding assays for [^35S]-GTPγS were performed in 96-well non-binding surface plates with a final volume of 200 μL. The test compounds were serially diluted in DMSO and added to assay plates using a Tecan D300E digital printer with a total volume of […]. The control sphingosine-1-phosphate (S1P) was prepared separately by preparing a 400 μM stock solution from a 100 nmol pellet of S1P in 10 mM Na2CO3 with 2% […]. The serial dilution of S1P was done using complete assay buffer (20 mM HEPES, 10 mM MgCl2, 100 mM NaCl, 1 mM EDTA, 0.1% fatty acid free bovine serum albumin (BSA), and 30 μg/mL saponin, pH 7.4) and transferred to wells already containing 0.4 μL DMSO. All the wells were then loaded to a total volume of 40 μL of complete assay buffer, except the non-specific binding (NSB) wells. For NSB wells, 40 μL/well of 50 μM GTPγS (Sigma Aldrich, cat #G8634, St. Louis, MO) was added to wells containing 0.4 μL of DMSO. The assay was started by the addition of 120 μL/well of CHO-SlP receptor membrane solution containing 40 μg/mL of membrane protein, 16.67 μM guanosine diphosphate (GDP; Sigma Aldrich, cat #G7127, St. Louis, MO), and 2.5 mg/mL of WGA PVT SPA beads in complete buffer. Assay plates were then sealed and incubated at room temperature with gentle agitation for 30 minutes. Next, 40 µL/well of 1 nM of [^35S]-GTPγS (PerkinElmer, cat #NEG030X25OUC, Waltham, MA) in basic assay buffer (20 mM HEPES, 10 mM MgCl2, 100 mM NaCl, and 1 mM EDTA, pH7.4) was added to the assay plates to yield a final concentration of 200 pM and the plates were further incubated for 40 minutes at room temperature with gentle agitation. The assay was terminated by centrifugation of the plates at 1000 rpm for 3 minutes using an Eppendorf 5810R centrifuge (Eppendorf, Hamburg, Germany) and G protein bound radioactivity was quantitated using a MicroBeta2 microplate scintillation counter (PerkinElmer, Waltham, MA). As G protein bound radioactivity directly correlates to receptor activation and coupling to the G protein, this assay is a measure of S1P5 agonism.
# Chain of S1P5 (Q9H228 whole entry, species assumed): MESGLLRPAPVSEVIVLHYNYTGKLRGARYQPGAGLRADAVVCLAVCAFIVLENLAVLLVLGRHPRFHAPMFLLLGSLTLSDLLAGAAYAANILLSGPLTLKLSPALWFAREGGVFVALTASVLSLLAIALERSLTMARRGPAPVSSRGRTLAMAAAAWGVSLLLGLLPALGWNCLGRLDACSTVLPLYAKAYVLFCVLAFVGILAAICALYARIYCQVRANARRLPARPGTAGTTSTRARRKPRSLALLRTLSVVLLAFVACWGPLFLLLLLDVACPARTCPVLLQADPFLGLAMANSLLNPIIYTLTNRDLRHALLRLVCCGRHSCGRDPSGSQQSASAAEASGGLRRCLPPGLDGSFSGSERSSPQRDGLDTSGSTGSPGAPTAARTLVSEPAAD
row,SMILES,EC50 [nM]
1,"CC1CC(C(=O)O)CCN1C1CCc2cc(OCc3c(Cl)cccc3Cl)ccc21 (stereo not shown) [Compound 30, 1-(5-((2,6-dichlorobenzyl)oxy)-2,3-dihydro-1H-inden-1-yl)-2-methylpiperidine-4-carboxylic acid]",10 to 100
2,"CC1CC(C(=O)O)CC(C)N1C1CCc2cc(OCc3c(Cl)cccc3Cl)ccc21 (stereo not shown) [Compound 31, 1-(5-((2,6-dichlorobenzyl)oxy)-2,3-dihydro-1H-inden-1-yl)-2,6-dimethylpiperidine-4-carboxylic acid]",10 to 100
3,"O=C(O)C1CCN(C2CCc3cc(OCc4c(Cl)cccc4Cl)cc(F)c32)CC1 (stereo not shown) [Compound 32, 1-(5-((2,6-dichlorobenzyl)oxy)-7-fluoro-2,3-dihydro-1H-inden-1-yl)piperidine-4-carboxylic acid]",1 to 10
4,"O=C(O)C1CCN(C2CCc3cc(OCc4c(Cl)cccc4Cl)c(F)cc32)CC1 (stereo not shown) [Compound 33, 1-(5-((2,6-dichlorobenzyl)oxy)-6-fluoro-2,3-dihydro-1H-inden-1-yl)piperidine-4-carboxylic acid]",1 to 10
5,"O=C(O)C1CCN(C2CCc3c2ccc(OCc2c(Cl)cccc2Cl)c3F)CC1 (stereo not shown) [Compound 34, 1-(5-((2,6-dichlorobenzyl)oxy)-4-fluoro-2,3-dihydro-1H-inden-1-yl)piperidine-4-carboxylic acid]",≤ 1

# Second part, the compound after the results:
row,EC50 [nM],SMILES
1,≤ 1,"Cc1cc(OCc2c(Cl)cccc2Cl)cc2c1C(N1CCC(C(=O)O)CC1)CC2 (stereo not shown) [Compound 35, 1-(5-((2,6-dichlorobenzyl)oxy)-7-methyl-2,3-dihydro-1H-inden-1-yl)piperidine-4-carboxylic acid]"
2,≤ 1,"Cc1c(OCc2c(Cl)cccc2Cl)ccc2c1CCC2N1CCC(C(=O)O)CC1 (stereo not shown) [Compound 36, 1-(5-((2,6-dichlorobenzyl)oxy)-4-methyl-2,3-dihydro-1H-inden-1-yl)piperidine-4-carboxylic acid]"
3,1 to 10,"Cc1cc2c(cc1OCc1c(Cl)cccc1Cl)CCC2N1CCC(C(=O)O)CC1 (stereo not shown) [Compound 37, 1-(5-((2,6-dichlorobenzyl)oxy)-6-methyl-2,3-dihydro-1H-inden-1-yl)piperidine-4-carboxylic acid]"
4,1 to 10,"CC1CC(N2CCC(C(=O)O)CC2)c2ccc(OCc3c(Cl)cccc3Cl)cc21 (stereo not shown) [Compound 38, 1-(5-((2,6-dichlorobenzyl)oxy)-3-methyl-2,3-dihydro-1H-inden-1-yl)piperidine-4-carboxylic acid]"
5,10 to 100,CC1(C)CC(N2CCC(C(=O)O)CC2)c2ccc(OCc3c(Cl)cccc3Cl)cc21 (stereo not shown) [Compound 39]
